{"source": "patent US12343350B2", "about": "“Istaroxime-containing intravenous formulation for the treatment of acute heart failure (AHF)” (Windtree Therapeutics, Inc., priority 2019, dated 2025)", "key": {"[1]": {"settings": "death due mainly to arrhythmias; cited from earlier work"}, "dog renal Na,K-ATPase": {"target": "dog renal Na,K-ATPase (Canis lupus familiaris (Dog) (Canis familiaris), UniProt P50997)", "assay": "Inhibition of dog renal Na,K-ATPase activity (32P-ATP)", "type": "biochemical", "method": "Kidneys were sliced and the outer medulla was dissected, pooled and suspended (1 g/10 ml) in a sucrose-histidine solution, containing 250 mM sucrose, 30 mM histidine and 5 mM EDTA, pH 7.2 and homogenized. The homogenate was centrifuged at 6.000 g for 15 min, the supernatant was decanted and centrifuged at 48.000 g for 30 min. The pellet was suspended in the sucrose-histidine buffer and incubated for 20 min with a sodium-dodecyl-sulphate (SDS) solution dissolved in a gradient buffer, containing 25 mM imidazole and 1 mM EDTA, pH 7.5. […] The pellet was suspended in the gradient buffer.\nIncreasing concentrations of the standard ouabain, or tested compound, were incubated with 0.3 μg of purified dog kidney enzyme for 10 min at 37° C. in 120 μl final volume of a medium containing 140 mM NaCl, 3 mM MgCl2, 50 mM Hepes-Tris, 3 mM ATP at a pH 7.5. Then, 10 μl of incubation solution containing 10 mM KCl and 20 nCi of ^32P-ATP (3-10 Ci/mmol, Perkin Elmer) was added, and the reaction was continued for 15 min at 37° C. The reaction was then stopped by acidification with 20% v/v ice-cold perchloric acid. ^32P was separated by centrifugation with activated Charcoal (Norit A, Serva) and the radioactivity was measured. The inhibitory activity was expressed as percent of the control samples carried out in the absence of ouabain or tested compound."}, "SERCA2a [2]": {"test_system": "SERCA2a", "settings": "previous studies; cited from earlier work"}, "[3]": {"assay": "Plasma levels of istaroxime and its metabolites in patients (HPLC-MS/MS)", "type": "in vivo, human", "settings": "24 h infusion of 0.5 or 1 μg/kg/min istaroxime, Caucasian and Chinese patients", "method": "The quantitative determination of PST 2744 and its metabolite PST 2915 in human plasma was determined by the HPLC-MS/MS method that included a mobile phase of 70:30 acetonitrile/water, 1 mL/L 1M formic acid, and 1 mL/L 5M ammonium acetate. The flow rate was 1 mL/min, and the chromatographic separation was by reversed phase HPLC (Column: SYNERGI 4μ POLAR-RP80A 150×4.6 mm equipped with a Security-guard Phenomenex Polar-RP 4×3 mm). Detection was performed by MS/MS, and the acquisition mode was Multiple Reaction Monitoring (MRM).\nThe quantitative determination of istaroxime metabolies PST 2922 and PST 3093 in human plasma was also measured by the HPLC-MS/MS method. In this case, the mobile phase was 50:50 H2 O/CH3 CN (v/v) and 500 μL/L 98-100% HCOOH. The flow rate was 1 mL/min and chromatographic separation was done by reversed-phase HPLC (Column: Phenomenex Phenyl hexyl, 150×4.6 mm, equipped with a Phenomenex phenyl propyl guard-cartridge) under isocratic conditions. Detection was performed by MS/MS (376.0→282.0 amu for PST2922, 378.0→284.0 amu for PST 3093 and 362.0→268.0 amu for PST 3418, IS)."}, "SERCA2a [4]": {"target": "SERCA2a (Canis lupus familiaris (Dog) (Canis familiaris), UniProt O46674)", "sequence (O46674 whole entry)": "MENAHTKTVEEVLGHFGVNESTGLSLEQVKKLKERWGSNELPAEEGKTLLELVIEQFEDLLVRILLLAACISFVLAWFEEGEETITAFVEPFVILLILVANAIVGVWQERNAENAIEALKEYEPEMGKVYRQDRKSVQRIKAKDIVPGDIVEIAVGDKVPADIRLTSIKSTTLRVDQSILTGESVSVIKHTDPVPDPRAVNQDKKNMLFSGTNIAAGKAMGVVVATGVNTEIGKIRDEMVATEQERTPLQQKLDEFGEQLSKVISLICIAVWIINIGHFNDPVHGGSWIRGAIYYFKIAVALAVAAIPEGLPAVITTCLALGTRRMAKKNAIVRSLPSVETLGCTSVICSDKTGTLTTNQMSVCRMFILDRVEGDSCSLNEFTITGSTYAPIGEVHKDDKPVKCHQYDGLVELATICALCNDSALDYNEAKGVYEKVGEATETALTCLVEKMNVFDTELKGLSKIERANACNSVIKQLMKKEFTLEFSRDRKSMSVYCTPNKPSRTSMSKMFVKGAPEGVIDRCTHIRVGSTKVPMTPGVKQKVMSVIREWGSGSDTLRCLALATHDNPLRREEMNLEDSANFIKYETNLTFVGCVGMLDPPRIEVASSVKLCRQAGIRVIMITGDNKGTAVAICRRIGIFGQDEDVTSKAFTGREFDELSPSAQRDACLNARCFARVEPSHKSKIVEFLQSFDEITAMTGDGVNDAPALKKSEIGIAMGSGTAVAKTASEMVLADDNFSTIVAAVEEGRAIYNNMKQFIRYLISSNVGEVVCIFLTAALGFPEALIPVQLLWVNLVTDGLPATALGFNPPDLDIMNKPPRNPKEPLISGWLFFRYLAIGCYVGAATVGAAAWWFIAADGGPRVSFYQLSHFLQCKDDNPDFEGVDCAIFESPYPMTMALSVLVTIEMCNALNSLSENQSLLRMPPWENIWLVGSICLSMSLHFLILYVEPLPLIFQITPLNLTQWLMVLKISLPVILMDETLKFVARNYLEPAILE", "assay": "SERCA2a ATPase activity in heart-derived SR microsomes from normal dog", "type": "biochemical", "settings": "normal dog SR microsomes", "method": "Male beagle dogs were used for obtaining cardiac tissues for SERCA2a-enriched sarcoplasmic reticulum preparations. Healthy dogs were utilized for obtaining the data in Table 3. Chronic heart failure was induced in dogs by multiple intracoronary microembolizations with polystyrene latex microspheres ([…], Polysciences, Warrington, PA, USA) as described previously (see Sabbah H N et al., Am J Physiol. 1991; 260:H1379-84). The experiments were conducted in the General Pharmacology Department of Sigma-Tau, Rome, Italy.\nLeft ventricle tissues were dissected, homogenized in 4 volumes of 10 mM NaHCO3 (pH 7), 1 mM PMSF, 10 μg/ml Aprotinin and Leupeptin and centrifuged at 12.000 g for 15 minutes, as described in Nediani C. et al. (J Biol Chem. 1996; 271:19066-73). Supernatants were filtered and centrifuged at 100.000 g for 30 min. Contractile proteins were extracted by suspending the pellets with 0.6 M KCl, 30 mM Histidine, pH 7 and further centrifugation at 100.000 g for 30 min. Final pellets were reconstituted with 0.3 M Sucrose, 30 mM Histidine, pH 7.\nSERCA2a activity was measured in vitro as ^32P-ATP hydrolysis at different Ca2^+ concentrations (100 to 3000 nM) in the absence and presence of the tested compounds as described previously (see Micheletti R. et al., Am J Card 2007; 99:24A-32A). Increasing concentrations of each compound (from 0.05 to 300 nM) were pre-incubated with 2 μg of microsomes for 5 min at 4° C. in 80 μl of a solution containing 100 mM KCl, 5 mM MgCl2, 1 μM A23187, 20 mM Tris, pH 7.5. Then, 20 μl of 5 mM Tris-ATP containing 50 nCi of ^32P-ATP (3-10 Ci/mmol, Perkin Elmer) was added. The ATP hydrolysis was continued for 15 min at 37° C. and was stopped by acidification with 100 μl of 20% v/v ice-cold perchloric acid. ^32P was separated by centrifugation with activated charcoal (Norit A, SERVA) and the radioactivity was measured. SERCA2a-dependent activity was identified as the portion of total hydrolytic activity inhibited by 10 μM cyclopiazonic acid (see Seidler N W. et al., J Biol Chem. 1989; 264:17816-23).\nDose-response curves were fitted by using a sigmoidal curve fitting software and the maximal velocity (Vmax) activity and the Kd Ca2^+ were calculated (Synergy Software KaleidaGraph 3.6).\nThe compounds disclosed herein were tested on SERCA2a ATPase activity prepared from normal and failing dogs in a range of concentrations from […]. The effect has been expressed as % increase of the Vmax activity of a control sample run in the absence of compound. Data are mean & SD, where n indicates the number of experiments."}, "[5]": {"settings": "stimulation of cardiac pumping ability; cited from earlier work"}}, "note": "Structures can show the parent of a compound that is named as a salt. Where two headings read alike, the source gives them in different places. Marks after values point to notes of the source that are not given here."}
{"smiles": "C[C@H]1O[C@@H](O[C@H]2[C@@H](O)C[C@H](O[C@H]3[C@@H](O)C[C@H](O[C@H]4CC[C@@]5(C)[C@H](CC[C@@H]6[C@@H]5C[C@@H](O)[C@]5(C)[C@@H](C7=CC(=O)OC7)CC[C@]65O)C4)O[C@@H]3C)O[C@@H]2C)C[C@H](O)[C@@H]1O", "note": "[Digoxin]", "values": [{"measurement": "serum concentration threshold above which increased risk of death", "setting": "[1]", "value": 0.9, "unit": "ng/mL"}, {"measurement": "IC50", "setting": "dog renal Na,K-ATPase; purified dog kidney enzyme, 37° C., read-out: IC50, inhibition of dog renal Na,K-ATPase", "value": 180, "unit": "nM"}, {"measurement": "SERCA2a activity stimulation", "setting": "SERCA2a [2]", "value": "failed to stimulate"}]}
{"smiles": "C[C@]12CCC(=NOCCN)CC1[C@H](O)CC1C2CC[C@]2(C)C(=O)CCC12", "note": "(stereo partly drawn) [PST 2915, (E,Z)-3-(2-Aminoethoxyimino)-6beta-hydroxyandrostan-17-one hydrochloride]", "values": [{"measurement": "plasma concentration course during the infusion period", "setting": "[3]", "value": "continue to accumulate"}, {"measurement": "IC50", "setting": "dog renal Na,K-ATPase", "value": 2100, "unit": "nM"}, {"measurement": "% increase vs control (Vmax)", "setting": "SERCA2a [4]; 0.1 nM compound", "value": 11, "unit": "%"}, {"measurement": "% increase vs control (Vmax)", "setting": "SERCA2a [4]; 10 nM compound", "value": "16* %"}]}
{"smiles": "COC(=O)N1CCN(Cc2cccc(NC(=O)Nc3ccc(C)nc3)c2F)CC1", "note": "[omecamtiv]", "values": [{"measurement": "plasma levels of Hs TnT", "setting": "[5]", "value": "associated with an increase"}]}
